Columns and labels:
mouse TRPV3 = target: T1, mouse TRPV3 (Mus musculus, UniProt Q8K424); assay: Voltage-step whole-cell recording of TRPV3 currents (40 μM 2-APB) in HEK 293T cells; type: cell-based; set-up: expressed in transfected cells; host or cells: HEK 293T; conditions: steps –160 to +180 mV, dyclonine 10, 30 μM, RR 10 μM
T1 sequence (Q8K424 1-791): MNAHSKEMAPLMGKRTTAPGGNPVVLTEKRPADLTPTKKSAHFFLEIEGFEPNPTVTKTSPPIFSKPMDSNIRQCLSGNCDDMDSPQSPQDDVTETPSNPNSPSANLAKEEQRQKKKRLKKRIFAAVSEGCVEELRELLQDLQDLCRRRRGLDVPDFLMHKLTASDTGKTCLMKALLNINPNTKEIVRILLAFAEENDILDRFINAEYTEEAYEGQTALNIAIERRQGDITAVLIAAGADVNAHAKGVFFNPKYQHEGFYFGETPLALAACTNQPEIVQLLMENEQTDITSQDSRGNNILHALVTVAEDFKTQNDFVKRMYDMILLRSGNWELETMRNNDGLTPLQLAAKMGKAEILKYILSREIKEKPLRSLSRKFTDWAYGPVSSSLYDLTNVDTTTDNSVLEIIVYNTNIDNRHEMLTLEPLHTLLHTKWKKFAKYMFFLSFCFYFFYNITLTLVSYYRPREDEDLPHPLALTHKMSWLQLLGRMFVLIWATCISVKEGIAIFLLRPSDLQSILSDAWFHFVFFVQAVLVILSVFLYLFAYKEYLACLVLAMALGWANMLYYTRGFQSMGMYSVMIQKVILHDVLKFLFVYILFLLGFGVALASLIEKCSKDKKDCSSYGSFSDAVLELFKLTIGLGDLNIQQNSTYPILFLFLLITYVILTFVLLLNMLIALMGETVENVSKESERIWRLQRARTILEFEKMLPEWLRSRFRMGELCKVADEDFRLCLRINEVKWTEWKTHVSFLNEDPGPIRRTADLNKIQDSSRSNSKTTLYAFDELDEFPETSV
From the text: Conventional whole-cell and excised patch-clamp recording methods were used. For the recombinant expressing system, green fluorescent EGFP was used as a surface marker for gene expression. Recording pipettes were pulled from borosilicate glass capillaries (World Precision Instruments) and fire-polished to a resistance between 2 and 4 MΩ when filled with internal solution containing (in mM) 140 CsCl, 2.0 MgCl2, 5 EGTA, and 10 HEPES, pH 7.4 (adjusted with CsOH). Bath solution contained (in mM): 140 NaCl, 5 KCl, 3 EGTA, and 10 HEPES, pH 7.4 adjusted with NaOH. For recordings in keratinocytes, the bath saline consisted of (in mM) 140 NaCl, 5 KCl, 2 MgCl2, 2 CaCl2, 10 glucoses, and 10 HEPES, pH 7.4 adjusted with NaOH, and the pipette solution contained (in mM) 140 CsCl, 5 EGTA, and 10 HEPES, pH 7.3 adjusted with CsOH. […] For a subset of recordings, currents were amplified using an Axopatch 200B amplifier (Molecular Devices, Sunnyvale, CA) and recorded through a BNC-2090/MIO acquisition system (National Instruments, Austin, TX) using QStudio developed by Dr. Feng Qin at State University of New York at Buffalo. […] As determined by the conductance tests, the solution around a patch under study was fully controlled by the application of a flow rate of 100 μl/min or greater. […]

C57B/6 mice = assay: Carvacrol-induced itch-scratching behavior in mice; type: in vivo, mouse
Method: To assess itch-scratching behaviors, the hair of the rostral part of the mouse’s right neck was shaved using an electric hair clipper 24 hr before the start of experiments. Trpv3^-/- mice have been described previously ([Wang et al., 2021]). Scratching behaviors were recorded on video. The number of itch-scratching bouts was counted through video playback analysis. One scratching bout was defined as an episode in which a mouse lifted its right hind limb to the injection site and scratched continuously for any time length until this limb was returned to the floor or mouth ([Wilson et al., 2013]). All behavioral experiments were conducted in a double-blind manner. […] [Sun and Dong, 2016]).

## N.N.N.N.N.N.N.N.N.N.N.N.N.N.[Cl-].[Cl-].[Cl-].[Cl-].[Cl-].[Cl-].[O-2].[O-2].[Ru+3].[Ru+3].[Ru+4] [RR, ruthenium red]
Mouse TRPV3
  effect on TRPV3-mediated inward and outward currents (voltage dependence): only inhibited TRPV3-mediated inward currents but enhanced outward currents

## Cc1ccc(C(C)C)cc1O [carvacrol]
C57B/6 mice; TRPV3-/- mice, intradermal carvacrol 0.1%, 50 μl
  change in the number of scratching bouts: did not elicit a remarkable change
C57B/6 mice; WT TRPV3 mice, intradermal carvacrol 0.1%, 50 μl
  accumulated scratching bouts over 30 min: 137.2 ± 33.9
C57B/6 mice; carvacrol (0.1%, 50 μl) with pretreatment of normal saline
  scratching bouts over 30 min: 137.8 ± 18.3

— publication PMC8112869, “Therapeutic inhibition of keratinocyte TRPV3 sensory channel by local anesthetic dyclonine” (eLife, 2021)
